The structures appear in SMILES notation. Where only a bound is given, the exact number is not on record here.

For the first assay, the system named is YAP/TAZ-TEAD transcription. The assay is described as follows: Reporter gene assay for measuring the inhibition of YAP/TAZ-TEAD transcription (TEAD-responsive element luciferase reporter, Hek293T cells). In kind it is cell-based. Particulars: Hek293T cells transfected with TEAD-responsive element luciferase reporter, 24 hours incubation. As for the experimental part: Hek293T cells were cultured in DMEM supplemented with 10% fetal bovine serum, Sodium pyruvate, Sodium bicarbonate, L-glutamine. The cells were harvested and transiently transfected with TEAD-responsive element luciferase reporter. Transfected cells were plated in 384-well plate containing pre-diluted compounds. After 24 hours incubation at 37° C./5% CO2, assay plates were cooled to room temperature and levelled to an equal volume per well, prior to the addition of 25 uL luciferase substrate SteadyLite (Perkin Elmer)/well. The plate was shaken for 10 min at 600 rpm, centrifuged for 1 min at 500 rpm and measured with an Envision reader (PerkinElmer). The amount of relative light units produced by the TEAD reporter was used to calculate the percentage of inhibition.
The percent of reporter inhibition was calculated in the presence of a positive control inhibitor (100% inhibition) versus a condition with the presence of the vehicle basal activity of the reporter (0% inhibition). The ability of a test compound to inhibit this activity was determined as: Percentage inhibition=[1-((RLU determined in the presence of vehicle−RLU determined for sample with test compound present) divided by (RLU determined in the presence of vehicle−RLU determined for sample with positive control inhibitor))]*100.
The activities of example compounds tested are depicted in Table 3. The activity ranges A, B and C refer to IC50 values in the reporter gene assay as follows: “A”: IC50<1 μM; “B”: 1 μM≤IC50 10 μM and “C”: IC50>10 μM; NT=not tested.
On the technique in general: Reporter assays use an easily measured gene product as a stand-in for the process of interest.
One may read the IC50 as the midpoint of a concentration-inhibition curve. Low values mean greater potency, high ones weaker potency. Take `C=CC(=O)NCC1Cc2ncccc2N(c2ccc(C(F)(F)F)cc2)C1` (single isomer, unassigned) [Cpd. No. 10-En2, (R)- or (S)-N-((1-(4-(trifluoromethyl)phenyl)-1,2,3,4-tetrahydro-1,5-naphthyridin-3-yl)methyl)acrylamide]: the IC50 was less than 1000 nM.

`CC(=O)NCC1(C)Cc2ncccc2N(c2ccc(C(F)(F)F)cc2)C1` (single isomer, unassigned) [Cpd. No. 47-En2, (R)- or (S)-N-((3-methyl-1-(4-(trifluoromethyl)phenyl)-1,2,3,4-tetrahydro-1,5-naphthyridin-3-yl)methyl)acetamide]: the IC50 is greater than 10000 nM.

Still in this assay, the particulars now being: Homo sapiens, HEK-293T, 24 h, Hek293T cells transfected with TEAD-responsive element luciferase reporter, 24 hours incubation.
In the case of `CC(=O)NCC1Cc2c(cc[nH]c2=O)N(c2ccc(C(F)(F)F)cc2)C1` (stereo not drawn) [Cpd. No. 27, N-((5-oxo-1-(4-(trifluoromethyl)phenyl)-1,2,3,4,5,6-hexahydro-1,6-naphthyridin-3-yl)methyl)acetamide], the IC50 was greater than 10000 nM.

Take `CC(=O)NCc1cc2c(c(-c3ccc(C(F)(F)F)cc3)c1)CNCC2` [Cpd. No. 32, N-((8-(4-(trifluoromethyl)phenyl)-1,2,3,4-tetrahydroisoquinolin-6-yl)methyl)acetamide]: the half-inhibitory concentration (IC50) is greater than 10000 nM.

`CC(=O)NCC1Cc2ncccc2N(c2ccc(C(F)(F)F)cn2)C1` (stereo not drawn) [Cpd. No. 53, N-((1-(5-(trifluoromethyl)pyridin-2-yl)-1,2,3,4-tetrahydro-1,5-naphthyridin-3-yl)methyl)acetamide] yielded an IC50 of 1000 to 10000 nM.

Consider `CC(=O)NCC1Cc2nc(C(N)=O)ccc2N(c2ccc(C(F)(F)F)cc2)C1` (stereo not drawn) [Cpd. No. 59, 7-(acetamidomethyl)-5-(4-(trifluoromethyl)phenyl)-5,6,7,8-tetrahydro-1,5-naphthyridine-2-carboxamide], for which the half-inhibitory concentration (IC50) is greater than 10000 nM.

With `CS(=O)(=O)NCC1Cc2c(Oc3cccnc3)cccc2N(c2ccc(C(F)(F)F)cc2)C1` (stereo not drawn) [Cpd. No. 2, N-((5-(pyridin-3-yloxy)-1-(4-(trifluoromethyl)phenyl)-1,2,3,4-tetrahydroquinolin-3-yl)methyl)methanesulfonamide], the IC50 is 1000 to 10000 nM.

`CC(=O)NCC1Cc2ncc(F)cc2N(c2ccc(C(F)(F)F)cc2)C1` (stereo not drawn) [Cpd. No. 50, N-((7-fluoro-1-(4-(trifluoromethyl)phenyl)-1,2,3,4-tetrahydro-1,5-naphthyridin-3-yl)methyl)acetamide] had an IC50 of less than 1000 nM.

`CC(=O)NCC1Cc2c(ccc[n+]2[O-])N(c2ccc(C(F)(F)F)cc2)C1` (stereo not drawn) [Cpd. No. 16, 7-(acetamidomethyl)-5-(4-(trifluoromethyl)phenyl)-5,6,7,8-tetrahydro-1,5-naphthyridine 1-oxide] registered an IC50 of 1000 to 10000 nM.

`CC(=O)NCC1Cc2nc(C3CC3)ccc2N(c2ccc(C(F)(F)F)cc2)C1` (stereo not drawn) [Cpd. No. 57, N-((6-cyclopropyl-1-(4-(trifluoromethyl)phenyl)-1,2,3,4-tetrahydro-1,5-naphthyridin-3-yl)methyl)acetamide] had an IC50 of less than 1000 nM.

Consider `COc1ccc2c(n1)CC(CNC(C)=O)CN2c1ccc(C(F)(F)F)cc1` (single isomer, unassigned) [Cpd. No. 22-En1, (R)- or (S)-N-((6-methoxy-1-(4-(trifluoromethyl)phenyl)-1,2,3,4-tetrahydro-1,5-naphthyridin-3-yl)methyl)acetamide], for which the IC50 was in the range of 1000 to 10000 nM.

On to `O=C1CCCN1CC1Cc2ncccc2N(c2ccc(C(F)(F)F)cc2)C1` (stereo not drawn) [Cpd. No. 31, 1-((1-(4-(trifluoromethyl)phenyl)-1,2,3,4-tetrahydro-1,5-naphthyridin-3-yl)methyl)pyrrolidin-2-one], for which the IC50 is greater than 10000 nM.

In turn, `C=CC(=O)N1CCN(C2Cc3ccccc3N(c3ccc(C(F)(F)F)cc3)C2)CC1` (stereo not drawn) [Cpd. No. 41, 1-(4-(1-(4-(trifluoromethyl)phenyl)-1,2,3,4-tetrahydroquinolin-3-yl)piperazin-1-yl)prop-2-en-1-one] showed an IC50 of less than 1000 nM.

`CC(=O)NCC1Cc2nc(C)ccc2N(c2ccc(C(F)(F)F)cc2)C1` (single isomer, unassigned) [Cpd. No. 26-En1, (R)- or (S)-N-((6-methyl-1-(4-(trifluoromethyl)phenyl)-1,2,3,4-tetrahydro-1,5-naphthyridin-3-yl)methyl)acetamide] yielded an IC50 of less than 1000 nM.

The compound `Cn1cncc1C(=O)NCC1Cc2ncccc2N(c2ccc(C(F)(F)F)cc2)C1` (stereo not drawn) [Cpd. No. 30, 1-methyl-N-((1-(4-(trifluoromethyl)phenyl)-1,2,3,4-tetrahydro-1,5-naphthyridin-3-yl)methyl)-1H-imidazole-5-carboxamide] came in with an IC50 greater than 10000 nM.

In turn, `CC(=O)NCC1Cc2nc(C(F)(F)F)ccc2N(c2ccc(C(F)(F)F)cc2)C1` (stereo not drawn) [Cpd. No. 42, N-((6-(trifluoromethyl)-1-(4-(trifluoromethyl)phenyl)-1,2,3,4-tetrahydro-1,5-naphthyridin-3-yl)methyl)acetamide] gave a 50% inhibitory concentration (IC50) of less than 1000 nM.

With `CCC(=O)NCC1Cc2c(OCc3cc(=O)[nH]c(=O)[nH]3)cccc2N(c2ccc(C(F)(F)F)cc2)C1` (stereo not drawn) [Cpd. No. 5, N-((5-((2,6-dioxo-1,2,3,6-tetrahydropyrimidin-4-yl)methoxy)-1-(4-(trifluoromethyl)phenyl)-1,2,3,4-tetrahydroquinolin-3-yl)methyl)propionamide], the concentration for half-maximal inhibition (IC50) is less than 1000 nM.

`C=CC(=O)NCC1Cc2nc(OC)ccc2N(c2ccc(C(F)(F)F)cc2)C1` (stereo not drawn) [Cpd. No. 21, N-((6-methoxy-1-(4-(trifluoromethyl)phenyl)-1,2,3,4-tetrahydro-1,5-naphthyridin-3-yl)methyl)acrylamide] showed a half-inhibitory concentration (IC50) of less than 1000 nM.

`C#Cc1ccc2c(n1)CC(CNC(C)=O)CN2c1ccc(C(F)(F)F)cc1` (stereo not drawn) [Cpd. No. 63, N-((6-ethynyl-1-(4-(trifluoromethyl)phenyl)-1,2,3,4-tetrahydro-1,5-naphthyridin-3-yl)methyl)acetamide] showed an IC50 of less than 1000 nM.

`CNC(=O)NCC1Cc2ncccc2N(c2ccc(C(F)(F)F)cc2)C1` (stereo not drawn) [Cpd. No. 43, 1-methyl-3-((1-(4-(trifluoromethyl)phenyl)-1,2,3,4-tetrahydro-1,5-naphthyridin-3-yl)methyl)urea] gave an IC50 of less than 1000 nM.

On to `O=C(O)COC1Cc2ncccc2N(c2ccc(C(F)(F)F)cc2)C1` (stereo not drawn) [Cpd. No. 24, 2-((1-(4-(trifluoromethyl)phenyl)-1,2,3,4-tetrahydro-1,5-naphthyridin-3-yl)oxy)acetic acid], for which the IC50 is greater than 10000 nM.

`CNS(=O)(=O)NCC1Cc2ncccc2N(c2ccc(C(F)(F)F)cc2)C1` (stereo not drawn) [Cpd. No. 19, N-(methylsulfamoyl)-1-[1-[4-(trifluoromethyl)phenyl]-3,4-dihydro-2H-1,5-naphthyridin-3-yl]methanamine] yielded an IC50 of less than 1000 nM.

Turning to `CC(=O)NCC1Cc2ncccc2N(c2ccc(C(F)(F)F)cc2)C1` (single isomer, unassigned) [Cpd. No. 12-En1, (R)- or (S)-N-((1-(4-(trifluoromethyl)phenyl)-1,2,3,4-tetrahydro-1,5-naphthyridin-3-yl)methyl)acetamide], the half-inhibitory concentration (IC50) was 1000 to 10000 nM.

Consider `CC(=O)NCC1Cc2nc(Br)ccc2N(c2ccc(C(F)(F)F)cc2)C1` (stereo not drawn) [Cpd. No. 62, N-((6-bromo-1-(4-(trifluoromethyl)phenyl)-1,2,3,4-tetrahydro-1,5-naphthyridin-3-yl)methyl)acetamide], for which the IC50 is less than 1000 nM.

Compound `CCC(=O)NCC1Cc2ncccc2N(c2ccc(C(F)(F)F)cc2)C1` (stereo not drawn) [Cpd. No. 17, N-((1-(4-(trifluoromethyl)phenyl)-1,2,3,4-tetrahydro-1,5-naphthyridin-3-yl)methyl)propionamide] came in with a half-inhibitory concentration (IC50) of less than 1000 nM.

`CC(=O)NCC1Cc2nccnc2N(c2ccc(C(F)(F)F)cc2)C1` (stereo not drawn) [Cpd. No. 56, N-((5-(4-(trifluoromethyl)phenyl)-5,6,7,8-tetrahydropyrido[2,3-b]pyrazin-7-yl)methyl)acetamide] displayed an IC50 of less than 1000 nM.

Regarding `CC(=O)NCC1Cc2nc(C#N)ccc2N(c2ccc(C(F)(F)F)cc2)C1` (stereo not drawn) [Cpd. No. 58, N-((6-cyano-1-(4-(trifluoromethyl)phenyl)-1,2,3,4-tetrahydro-1,5-naphthyridin-3-yl)methyl)acetamide], the IC50 is greater than 10000 nM.

Take `CC(=O)NCC1Cc2nc(O)ccc2N(c2ccc(C(F)(F)F)cc2)C1` (stereo not drawn) [Cpd. No. 23, N-((6-hydroxy-1-(4-(trifluoromethyl)phenyl)-1,2,3,4-tetrahydro-1,5-naphthyridin-3-yl)methyl)acetamide]: the half-maximal inhibitory concentration (IC50) was greater than 10000 nM.

Consider `COC(=O)NCC1Cc2ncccc2N(c2ccc(C(F)(F)F)cc2)C1` (single isomer, unassigned) [Cpd. No. 15-En2, (R)- or (S)-methyl ((1-(4-(trifluoromethyl)phenyl)-1,2,3,4-tetrahydro-1,5-naphthyridin-3-yl)methyl)carbamate], for which the half-inhibitory concentration (IC50) was in the range of 1000 to 10000 nM.

In turn, `C=CC(=O)NCc1cc2c(c(-c3ccc(C(F)(F)F)cc3)c1)CNCC2` [Cpd. No. 33, N-((8-(4-(trifluoromethyl)phenyl)-1,2,3,4-tetrahydroisoquinolin-6-yl)methyl)acrylamide] gave an IC50 of less than 1000 nM.
